Experimental data published in patent publication US20230157939A1, “PERSONAL CARE COMPOSITIONS WITH ENHANCED SOLUBILITY ACTIVES” (Conopco, Inc., d/b/a UNILEVER, priority 2020, published 2023).

Key:
[1] = Odor and H2S generation (H2S test strip) of cystine / cystine derivative samples; format: physicochemical; settings: summary of the Examples; monitored as H2S
Method: Evaluation of Cystine Crystallization and Odor in the Presence of Cystine Derivatives Samples for cystine crystallization evaluation were prepared by dissolving cystine (10 mg) alone or in combination with NDAC (N,N′-diacetyl-L-cystine) (55 mg), NACys (N-acetyl-L-cysteine) (28 mg) or L-cystine diethyl ester dihydrochloride (DEC) (62 mg) in 0.775M NaOH (1 ml) or Epilife™ cell culture media (60 uM calcium chloride, HEPES/bicarbonate buffered; Thermofisher Scientific) (1 ml) and the pH adjusted to 7.0 by adding HCl (12.1M). A hydrogen sulfide (H2S) test strip (Sigma) was placed above the sample solution and the samples sealed. Visual appearance, odor and H2S generation (unchanged test strip white color=no H2S generated; changed test strip brown/black color=H2S generated) were monitored up to 4 months and recorded.

[2] = according to Zhu, et al.; cited from earlier work
[3] = at 25° C.; cited from earlier work

Row | SMILES | odor of the cystine derivative, in words [1] | also measured
1 | CCOC(=O)[C@@H](N)CSSC[C@H](N)C(=O)OCC [DEC, L-Cystine diethyl ester] | unpleasant sulfurous odor | 
2 | CC(=O)N[C@@H](CSSC[C@H](NC(C)=O)C(=O)O)C(=O)O [NDAC, N,N′-Diacetyl-L-Cystine] |  | inhibitor of cystine crystal growth [2]: not effective
3 | N[C@@H](CSSC[C@H](N)C(=O)O)C(=O)O [cystine, L-Cystine] |  | solubility of cystine in water [3]: 112 µg/mL
4 | CC(=O)N[C@@H](CS)C(=O)O [NACys, N-Acetyl-L-Cysteine] | upleasant sulfurous odor | 
